Laboratory results from paper PMC3350394, “Kinetic analysis and test-retest variability of the radioligand [^11C](R)-PK11195 binding to TSPO in the human brain - a PET study in control subjects” (EJNMMI Research, 2012).
Where “and” joins values, the source holds several entries; their conditions need not be identical. Identical values can stand only once.

Molecular target: TSPO (Homo sapiens, UniProt P30536)
Test: PET, kinetic compartment analysis (1TCM, 2TCM) with metabolite-corrected arterial input function
Conditions: for BPND (k3/k4) Mean: mean of test and retest; for BPND (k3/k4) Retest / BPND (k3/k4) Test / VT (2TCM): mean(SD); for BPND (k3/k4) Retest / BPND (k3/k4) Test: 6 subjects; for ICC: BPND test-retest
Experimental: Each subject was placed recumbent with the head in the PET system. A head fixation system with an individual plaster helmet was used. A cannula was inserted into the left radial artery and another into the right antecubital vein. A sterile phosphate buffer (pH = 7.4) containing radioligand was injected as a bolus over 2 s into the cubital vein. The cannula was then immediately flushed with a 10-mL saline solution. In each individual, the measurement was repeated after approximately 6 weeks.
The PET system used was ECAT Exact HR 47 (Siemens/CTI, Knoxville, TN, USA), with an in-plane and an axial resolution of 3.6 and 4.0 mm, respectively, full width at half maximum (FWHM). The radioactivity in the brain was measured continuously for 60 min using a pre-programmed sequence of […] (20 s × 9, 30 s × 6, 180 s × 5, 300 s × 5). […] The images were reconstructed with a Hanning filter (FWHM = 2 mm) in a matrix of 128 × 128 × 47 voxels, yielding a voxel size of 2.03 × 2.03 × 3.125 mm. Attenuation correction was done using transmission scan data obtained for each subject.
[^11C](R)-PK11195 binding to TSPO was quantified using kinetic compartment analyses with the metabolite-corrected arterial plasma curve as input function. Two compartment models (one- and two-tissue) were used to fit the model to the TACs. The fractional volume of blood present in the tissue volume and bolus time were estimated for each individual, each occasion, by fitting the whole brain TAC with a two-tissue compartment model.
The one-tissue compartment model (1TCM) describes one compartment which is a composite of free, non-specifically and specifically bound radioligands. The two rate constants, K1 and k2, describe the influx and efflux rates across the blood-brain barrier, respectively.
The two-tissue compartment model (2TCM) has been described in detail in the literature. The two-tissue compartments are defined as the radioactivity concentration of a nondisplaceable radioligand in the brain (CND) and the radioactivity concentration of a radioligand specifically bound to receptors (CB). In this model, four rate constants (K1, k2, k3 and k4) explain the time curves for radioligand in the brain. In short, the four rate constants were determined by curve fitting with a weighted non-linear least squares fitting technique with constraint-restricting parameters between 0 and 0.9. Each initial value for K1, k2, k3 and k4 was 0.5, 0.1, 0.5 and 0.5, respectively. The local minimum of the sum of the squared residuals was determined by iteration.
Regional [^11C](R)-PK11195 binding was expressed using the concept of the total distribution volume (VT), which is defined by the following equation, using kinetic constants obtained from 2TCM [16, 20, 21].
Specific [^11C](R)-PK11195 binding was expressed as binding potential relative to nondisplaceable binding (BPND) as follows:
The fractional volume of blood present in the tissue volume was determined for each individual, each occasion. It was obtained by fitting whole brain TAC with a 2TCM with six parameters (K1, k2, k3, k4, fractional blood volume (VB) and time shift between plasma input function and PET TAC (tbolus)) and parameters VB and tbolus subsequently applied for each brain region.
The reproducibility of two successive PET measurements was analysed by means of descriptive statistics (mean, range, SD, coefficient of variance (CV), difference in measurement (error in percent) and intra-class correlation coefficient (ICC)). The ICC was calculated from the between-subject and within-subject variations, using the expression: […]

[1] = putamen (R), BPND test-retest difference in measurements
[2] = thalamus (L), BPND test-retest difference in measurements
[3] = thalamus (R), BPND test-retest difference in measurements
[4] = thalamus, BPND test-retest difference in measurements
[5] = thalamus, VT (2TCM) test-retest
[6] = white matter, 1TCM, retest (2), individual subjects 1-6
[7] = white matter, 1TCM, retest (2), mean(SD/CV) of 6 subjects
[8] = white matter, 1TCM, test (1), individual subjects 1-6
[9] = white matter, 1TCM, test (1), mean(SD/CV) of 6 subjects
[10] = white matter, 2TCM, retest (2), individual subjects 1-6
[11] = white matter, 2TCM, retest (2), mean(SD/CV) of 6 subjects
[12] = white matter, 2TCM, test (1), individual subjects 1-6
[13] = white matter, 2TCM, test (1), mean(SD/CV) of 6 subjects
[14] = white matter, BPND test-retest difference in measurements
[15] = white matter, VT (2TCM) test-retest
[16] = whole brain, BPND test-retest difference in measurements
[17] = whole brain, VT (2TCM) test-retest

TSPO, sequence (P30536 whole entry): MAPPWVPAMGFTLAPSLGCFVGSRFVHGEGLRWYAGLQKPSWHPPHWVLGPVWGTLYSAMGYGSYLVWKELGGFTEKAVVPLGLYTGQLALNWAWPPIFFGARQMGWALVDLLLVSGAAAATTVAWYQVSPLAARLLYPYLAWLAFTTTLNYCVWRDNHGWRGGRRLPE

CC[C@@H](C)N([11CH3])C(=O)c1cc2ccccc2c(-c2ccccc2Cl)n1 [[^11C](R)-PK11195]
BPND (k3/k4) Mean (putamen (R), 2TCM): 1.41
BPND (k3/k4) Retest (putamen (R), 2TCM): 1.56(0.73)
BPND (k3/k4) Test (putamen (R), 2TCM): 1.27(0.48)
ICC (putamen (R)): -0.01
Error % mean(SD) [1]: -32(72) %
Error range (%) [1]: -145 to 34%
BPND (k3/k4) Mean (putamen, 2TCM): 1.38
BPND (k3/k4) Retest (putamen, 2TCM): 1.50(0.69)
BPND (k3/k4) Test (putamen, 2TCM): 1.20(0.28)
ICC (putamen): 0.09
Error range (%) (putamen, BPND test-retest difference in measurements): -138 to 21%
Error % mean(SD) (putamen, VT (2TCM) test-retest): 17(38) %
Error range (%) (putamen, VT (2TCM) test-retest): -32 to 78%
VT (2TCM) (putamen, retest): 0.93(0.19)
VT (2TCM) (putamen, test): 0.83(0.21)
BPND (k3/k4) Mean (thalamus (L), 2TCM): 1.26
BPND (k3/k4) Retest (thalamus (L), 2TCM): 1.42(0.59)
BPND (k3/k4) Test (thalamus (L), 2TCM): 1.11(0.25)
ICC (thalamus (L)): 0.17
Error % mean(SD) [2]: -32(64) %
Error range (%) [2]: -136 to 39%
BPND (k3/k4) Mean (thalamus (R), 2TCM): 1.60
BPND (k3/k4) Retest (thalamus (R), 2TCM): 1.86(0.56)
BPND (k3/k4) Test (thalamus (R), 2TCM): 1.34(0.43)
ICC (thalamus (R)): 0.16
Error % mean(SD) [3]: -46(50) %
Error range (%) [3]: -136 to 17%
BPND (k3/k4) Mean (thalamus, 2TCM): 1.36
BPND (k3/k4) Retest (thalamus, 2TCM): 1.53(0.45)
BPND (k3/k4) Test (thalamus, 2TCM): 1.19(0.28)
ICC (thalamus): 0.57
Error % mean(SD) [4]: -29% and -29(33) %
Error range (%) [4]: -82 to 9%
Error % mean(SD) [5]: -6(29) %
Error range (%) [5]: -47 to 40%
VT (2TCM) (thalamus, retest): 0.80 (0.23)
VT (2TCM) (thalamus, test): 0.90(0.27)
K1 [6]: 0.075 mL/cc/min and 0.027 mL/cc/min and 0.032 mL/cc/min and 0.033 mL/cc/min and 0.042 mL/cc/min and 0.046 mL/cc/min
k2 [6]: 0.085 min⁻¹ and 0.066 min⁻¹ and 0.078 min⁻¹ and 0.064 min⁻¹ and 0.071 min⁻¹ and 0.089 min⁻¹
K1 [7]: 0.043(0.017/39) mL/cc/min
k2 [7]: 0.076(0.010/13) min^-1
K1 [8]: 0.049 mL/cc/min and 0.027 mL/cc/min and 0.048 mL/cc/min and 0.030 mL/cc/min and 0.055 mL/cc/min and 0.044 mL/cc/min
k2 [8]: 0.066 min⁻¹ and 0.081 min⁻¹ and 0.072 min⁻¹ and 0.086 min⁻¹ and 0.071 min⁻¹
K1 [9]: 0.042(0.011/26) mL/cc/min
k2 [9]: 0.074(0.008/11) min^-1
BPND (k3/k4) Mean (white matter, 2TCM): 1.84
BPND (k3/k4) Retest (white matter, 2TCM): 1.78(0.42)
BPND (k3/k4) Test (white matter, 2TCM): 1.90(0.42)
K1 [10]: 0.060 mL/cc/min and 0.097 mL/cc/min and 0.035 mL/cc/min and 0.045 mL/cc/min and 0.039 mL/cc/min and 0.051 mL/cc/min
k2 [10]: 0.206 min⁻¹ and 0.209 min⁻¹ and 0.164 min⁻¹ and 0.223 min⁻¹ and 0.126 min⁻¹ and 0.144 min⁻¹
k3 [10]: 0.042 min⁻¹ and 0.061 min⁻¹ and 0.041 min⁻¹ and 0.046 min⁻¹ and 0.028 min⁻¹ and 0.033 min⁻¹
k4 [10]: 0.025 min⁻¹ and 0.045 min⁻¹ and 0.020 min⁻¹ and 0.019 min⁻¹ and 0.018 min⁻¹ and 0.022 min⁻¹
K1 [11]: 0.055(0.023/42) mL/cc/min
k2 [11]: 0.179(0.040/22) min^-1
k3 [11]: 0.042(0.011/26) min^-1
k4 [11]: 0.025(0.010/40) min^-1
K1 [12]: 0.061 mL/cc/min and 0.032 mL/cc/min and 0.035 mL/cc/min and 0.067 mL/cc/min and 0.056 mL/cc/min
k2 [12]: 0.154 min⁻¹ and 0.124 min⁻¹ and 0.184 min⁻¹ and 0.138 min⁻¹ and 0.165 min⁻¹ and 0.176 min⁻¹
k3 [12]: 0.043 min⁻¹ and 0.024 min⁻¹ and 0.034 min⁻¹ and 0.037 min⁻¹
k4 [12]: 0.026 min⁻¹ and 0.019 min⁻¹ and 0.014 min⁻¹ and 0.012 min⁻¹ and 0.030 min⁻¹
K1 [13]: 0.052(0.015/29) mL/cc/min
k2 [13]: 0.157(0.02/13) min^-1
k3 [13]: 0.034(0.009/26) min^-1
k4 [13]: 0.020(0.007/35) min^-1
ICC (white matter): 0.73
Error % mean(SD) [14]: -4% and -8% and -8(18) %
Error range (%) [14]: -25 to 21%
Error % mean(SD) [15]: -9(25) %
Error range (%) [15]: -42 to 28%
VT (2TCM) (white matter, retest): 0.88 (0.19)
VT (2TCM) (white matter, test): 0.99(0.17)
BPND (k3/k4) Mean (whole brain, 2TCM): 1.67
BPND (k3/k4) Retest (whole brain, 2TCM): 1.68(0.35)
BPND (k3/k4) Test (whole brain, 2TCM): 1.65(0.33)
ICC (whole brain): 0.57
Error % mean(SD) [16]: 4% and -4(19) %
Error range (%) [16]: -25 to 22%
Error % mean(SD) [17]: -7(20) %
Error range (%) [17]: -38 to 21%
VT (2TCM) (whole brain, retest): 0.75 (0.16)
VT (2TCM) (whole brain, test): 0.82(0.18)
